These results are taken from patent publication US20170349879A1, “METHOD FOR CULTURING NORMAL CELLS AND ODONTOMA CELLS CONTAINED IN ORAL TISSUE” (CHIBA UNIVERSITY, priority 2014, published 2017).

One data set concerns odontoma cells. Kind of data set: Cell culture of odontoma cells using a Rho kinase inhibitor (cell morphology). The note with it: inhibitor-containing medium (10 μM); passage 5 with inhibitor vs passage 0 without; FIG. 11. Format: cell-based, human. How it is done: (§1) Odontoma cells, oral mucosal epithelial cells, fibroblasts, and cancer-associated fibroblasts (CAFs) (i) Patient-derived cells for use as a source material were taken in a required amount as described above. (ii) The cells were washed three times with phosphate-buffered physiological saline (PBS) (supplemented with 10 units/ml of penicillin and 100 μg/ml of streptomycin: Sigma-Aldrich). (iii) The cells were cut into small pieces with sterilized iris scissors and a surgical knife (No. 11). (iv) After addition of trypsin (TrypLE Select Enzyme, Gibco, Code No. A12177-01), the cells were shaken at 37° C. for 30 minutes. (v) The cells were mixed with Dulbecco's modified Eagle medium (DMEM: Sigma-Aldrich) (supplemented with 10% fetal bovine serum: Nichirei Bioscience Inc., Japan, 10 units/ml of penicillin and 100 μg/ml of streptomycin), and centrifugation (at 1000 rpm for 5 minutes) was repeated three times. (vi) The cells were mixed with DMEM (supplemented with 10% fetal bovine serum, 10 units/ml of penicillin, 100 μg/ml of streptomycin, 10 μM of the Rock kinase inhibitor and 0.3 μM of L-ascorbic acid 2-phosphate: Sigma-Aldrich) (DMEM+) and then seeded into collagen type I-coated cell culture dishes (IWAKI). (vii) The cells were washed with PBS once every three days to replace the above medium. (viii) The cultured cells were subcultured at 80% confluency. […]

Another data set relates to salivary gland cells. Kind of data set: Analysis of cytomorphological changes by immunocytological fluorescent staining of the cytoskeleton (F-actin). Format: cell-based, human. The settings on record: salivary gland cells in Rock inhibitor-containing medium vs inhibitor-free medium; FIG. 4. How it is done:
In this section, cytomorphological changes caused by the presence or absence of a Rock inhibitor were analyzed by immunocytological fluorescent staining of the cytoskeleton. Analytes were treated by the same experimental procedures as shown in (2.2) above. As an antibody, Acti-stain 670 fluorescent Phallodin (F-actin) (Cytoskeleton) was reacted at room temperature for 1 hour.

The test system of a further data set is fibroblasts. In words: Cell culture of fibroblasts using a Rho kinase inhibitor (cell morphology). Format: cell-based, human. The settings on record: inhibitor-containing medium (10 μM); passage 7 with inhibitor vs passage 2 without; FIG. 13. How it is done:
as §1

The test system of a further data set is amylase. Kind of data set: Expression analysis of amylase by quantitative RT-PCR in salivary gland cells. Format: cell-based, human. The note with it: salivary gland cells repeatedly subcultured in Rock inhibitor-containing medium; relative to GAPDH; FIG. 2. How it is done:
Salivary gland cells were cultured in the presence or absence of a Rock inhibitor and provided for quantitative RT-PCR assay with a LightCycler 480 (Roche) to analyze amylase expression in these salivary gland cells. The primers used for amylase are as shown below, and the universal probe used was #18. The primers used for glyceraldehyde-3-phosphate dehydrogenase (GAPDH) serving as an endogenous control are as shown below, and the universal probe used was #60. The PCR reaction was conducted in accordance with standard protocols by using a mixture (final reaction volume: 20 μl) containing 10 μl of Probe master (Roche), 0.2 μl of each probe master and the primers. The reaction conditions were set to initial denaturation at 95° C. for 5 minutes and 50 amplification cycles of denaturation at 95° C. for 10 seconds, annealing at 60° C. for 30 seconds and elongation reaction at 60° C. for 60 seconds. The mRNA level of the desired gene was expressed as a relative value to the expression level of GAPDH used as a control.

The test system of another data set is B6C3F1/Crlj mice. In words: Toxicity in mice administered intraperitoneally with a Rock inhibitor. The note with it: 10 mg/kg/day intraperitoneal, once a day for 14 days. In kind it is in vivo. How it is done:
4.3 Histopathological Analysis of Organ Toxicity in Mice Administered Intraperitoneally with a Rock Inhibitor Animal used: B6C3F1/Crlj mice (CLEA Japan, Inc., Japan) n=12 for each group (male: 6, female: 6), n=4 for the control group (male: 2, female: 2) Drug: Y-27632 Dose: 10 mg/kg/day (0.25 mg/day for 25 g body weight) Y-27632 was dissolved in PBS and intraperitoneally administered. The control group was administered with an equal volume of PBS. Administration period: administered once a day for successive 14 days. Half of the mice in each group were monitored for follow-up purposes for 14 days after administration. (i) Groups receiving a Rock inhibitor (RI+): n=12 (male: 6, female: 6) A. Group subjected to blood collection and autopsy at the time of the completion of administration (at 14 days after the initiation of administration). n=6 (male: 3, female: 3) B. Group subjected to blood collection and autopsy at the time of the completion of administration (at 28 days after the initiation of administration). n=6 (male: 3, female: 3) The mice were visually observed for their general condition once a day. The mice were measured daily for their body weight and feed/water intake. Hematological tests were performed on each mouse before administration and after administration (on the 14th day). * In each group, 3 male and 3 female mice were subjected to blood collection and autopsy on the 14th day of administration. […] These mice were subjected to blood examination and autopsy on the 28th day after the initiation of administration. Blood counting: red blood cell count, white blood cell count, platelet count, hematocrit value, red blood cell fraction. Biochemical parameters: TP, ALB, CRE, Na, K, GOT, GPT, T-CHO, Glu On the […], 3 male and 3 female mice from each group were subjected to autopsy. The remaining 3 male and 3 female mice were subjected to autopsy on the 28th day after being monitored for follow-up purposes. […]

Data set [1] concerns oral mucosal epithelial cells. In words: Cell culture of oral mucosal epithelial cells using a Rho kinase inhibitor (cell morphology). Format: cell-based, human. The settings on record: inhibitor-containing medium (10 μM); passage 5 with inhibitor vs passage 0 without; FIG. 12. How it is done:
as §1

As to `CC(N)[C@H]1CC[C@H](C(=O)Nc2ccncc2)CC1` (stereo partly drawn) [Rock inhibitor, (R)-(+)-trans-N-(4-pyridyl)-4-(1-aminoethyl)-cyclohexanecarboxamide], in the data set with odontoma cells, the “cell morphology of odontoma cells on repeated subculture” value was “maintain their cell morphology even when repeatedly subcultured”. In the data set with salivary gland cells, the “cytoskeleton (F-actin) morphology” value is given as “honeycomb-like skeleton”. The “cell morphology of fibroblasts on repeated subculture” value with fibroblasts is given as “maintain their cell morphology even when repeatedly subcultured”. Besides, the “mRNA expression of amylase” value with amylase is reported as “significantly high”. In addition, the hematological tests entry in the data set with B6C3F1/Crlj mice (FIG. 7) is reported as “No abnormal findings were observed”. The “time course of body weight changes” value with B6C3F1/Crlj mice (FIG. 8) is listed as “No abnormal findings were observed”. For the same compound, in the data set on B6C3F1/Crlj mice (HE staining, FIG. 9), the “histopathological examination of organs” value is given as “No abnormal findings were observed”. In data set [1], the “cell morphology of oral mucosal epithelial cells on repeated subculture” value was “maintain their cell morphology even when repeatedly subcultured”.
